# Data published in patent US20130225545A1, “PORPHYRIN TREATMENT OF NEURODEGENERATIVE DISEASES” (priority 2010, published 2013).
# Entries after “also recorded” stand apart in the source; their conditions may differ.
# Assays:
# [1] = Solubility of the compound for dosing; type: physicochemical; conditions: result in words
# [2] = Plasma concentration in C57BL/6 mice after a single dose (15 mg/kg) by the i.p. or p.o. route; type: in vivo; conditions: for plasma concentration after i.p. administration / plasma concentration after p.o. administration: C57BL/6 mice; for plasma concentration after i.p. administration: single dose 15 mg/kg i.p.; for bioavailability / pharmacokinetic properties, overall assessment: mice, i.p. and p.o., summary in words; for plasma concentration after p.o. administration: single dose 15 mg/kg p.o.
# From the text: (§1) Points represent mean±S.E.M. Each point is the average of 3-4 animals.
# (§2) Points represent mean+S.E.M. Bars represent mean+S.E.M. n=3-6 mice per group. […] Bars represent mean+S.E.M. n=3-6 mice per group. […] Bars represent mean+S.E.M. #p<0.01 vs MPTP. One-way, ANOVA, n=6 mice per group.
# (§3) Points represent mean±S.E.M. Each point is the average of 3-4 animals. […] Bars represent mean+S.E.M. n=6-8 mice per group. […] Bars represent mean+S.E.M. #p<0.01 vs MPTP. One-way, ANOVA, n=6 mice per group.
# (§4) Points represent mean+S.E.M. Each point is the average of 4 animals. […] Bars represent mean+S.E.M. n=6 mice per group. […] Bars represent mean+S.E.M. #p<0.01 vs MPTP. One-way, ANOVA, n=6 mice per group.
# Points represent mean+S.E.M. Each point is the average of 4 animals.
# [3] = Brain concentration in C57BL/6 mice after a single dose (15 mg/kg) by the i.p. or p.o. route; type: in vivo; conditions: for concentration in the brain after i.p. administration / concentration in the brain after p.o. administration / concentration in the brain, stable for 24 hr after i.p. administration / concentration in the brain for 24 hr after p.o. administration: C57BL/6 mice; for concentration in the brain after i.p. administration / concentration in the brain, stable for 24 hr after i.p. administration: single dose 15 mg/kg i.p.; for concentration in the brain after i.p. administration / concentration in the brain after p.o. administration: result in words; for concentration in the brain after p.o. administration / concentration in the brain for 24 hr after p.o. administration: single dose 15 mg/kg p.o.; for penetration of the BBB: 15 mg/kg, i.p. (AEOL11216), i.p. and p.o. (AEOL11203, AEOL1114)
# From the text: as §1, §2, §3, §4
# [4] = system: MPTP mouse model; assay: GSH, GSSG, GSH/GSSG and 3NT/Tyr ratios in ventral midbrain/SN 24 hours after MPTP; type: in vivo, C57/B6 mice; conditions: for protection against MPTP-induced alteration of 3-NT/tyrosine ratio / protection against MPTP-induced alteration of GSH/GSSG: 24 hours after MPTP
# From the text: as §2, §3, §4
# [5] = system: MPTP mouse model; assay: Dopamine levels in the striata 7 days after injection of MPTP; type: in vivo, C57BL/6 mice; conditions: for protection against MPTP-induced striatal dopamine depletion: 1 hr prior to MPTP and daily thereafter, MPTP 15 mg/kg x3 s.c., 7 days
# From the text: as §2, §3, §4
# [6] = system: MPTP mouse model; assay: Stereological count of TH+ neurons in the substantia nigra pars compacta 7 days after MPTP; type: in vivo, C57BL/6 mice; conditions: MPTP 15 mg/kg x3 s.c.
# Description: as §2
# Assessment of tyrosine hydroxylase (TH) neurons: Free-floating […] mesencephalic serial sections will be processed with antibodies against TH for immunohistochemistry (Vector Laboratories) and counterstained with cresyl violet. Total numbers of TH and cresyl violet-stained neurons in SNpc is counted stereologically with STEREO INVESTIGATOR software.
# Stereological analysis and TH immunohistochemistry: The 40-μm sections including the whole SN pars compacta (SNpc) from bregma −2.60 to −3.80 mm is immunostained with a rabbit antibody to TH (Chemicon, Temecula, Calif.) using the ABC method (ABC Elite Kit, Vector Laboratories, Burlingame, Calif.). The number of TH-positive neurons is quantified using stereo investigator software (MicroBrightfield, Williston, Vt.) by a previously described method (West, Trends in Neurosciences 22:51-61, 1999; Liang et al., J Neurosci 27:4326-4333, 2007).
# Bars represent mean+S.E.M. n=6.
# [7] = system: mice; assay: Accelerating rotarod test after 7 days of dosing; conditions: 15 mg/kg i.p. daily for 7 days; 3-4 h after last injection
# Description: (§5) FIG. 15. The histograms of FIGS. 15A-15C appear in the order (left to right): control; MnCl2; AEOL 11114; AEOL 11207; AEOL 11203. Behavioral testing after dosing mice with AEOL11207, AEOL11114B or AEOL11203 (MnCl2 positive control). Mice (6 per group) were divided 5 groups treated with AEOL11207, AEOL11203, AEOL11114B, MnCl2 (all compound dissolved in 5% DMSO) or 5% DMSO alone by 15 mg/kg i.p. daily for a period of 7 days. At the end of treatment, mice were performed the behavioral tests by open field and accelerating rotorod test in 3-4 h after last injection. The total moving distance (FIG. 15A), moving velocity (FIG. 15B) in 5 minutes measured by open field test and the latency (seconds) from acceleration to fall from the rod (FIG. 15C) in the mice 7 days after injection of vehicle, MnCl2, AEOL11114, AEOL11207 and AEOL11203 i.p. (15 mg/kg daily). Bars represent mean+S.E.M. One-way, ANOVA, n=6-8 mice per group.
# Motor behavior assessment by accelerating rotarod test follows the protocol of Hamm et al. (Ferret et al., Hepatology 33:1173-1180, 2001). Rotarod test is performed by using an automated rotarod (Ugo Basile, Comerio, Italy) after AEOLs or vehicle injections. Animals are tested two consecutive daily trials (1 hour apart) with an accelerating mode (15, 20, 25, 30, 35 and 40 rpm) in 240 seconds for total 5 days. The average latency to fall from the rod will be recorded. […]
# [8] = system: mice; assay: Open field test after 7 days of dosing; conditions: 15 mg/kg i.p. daily for 7 days; 3-4 h after last injection
# Description: as §5
# Open field test: The test is performed in mice treated with AEOL compounds or vehicle. The assessment is conducted over 2-4 days in a square arena mounted within specially designed sound-proof plexiglass shells. Each day a mouse is placed in the center of the open field arena and allowed to freely move about for 20-60 minutes while being tracked by an automated tracking system. […]
# [9] = system: MPTP metabolism; assay: Striatal MPP+ levels 3 h after MPTP (effects on MPTP metabolism); type: in vivo, mice; conditions: 15 mg/kg i.p. 1 h before MPTP (15 mg/kg s.c.)
# From the text: Bars represent mean+S.E.M. n=4-6 mice per group.
Compound,solubility [1],plasma concentration after i.p. administration ([2]; result in words),concentration in the brain after i.p. administration [3],concentration in the brain after p.o. administration [3],penetration of the BBB [3],"concentration in the brain, stable for 24 hr after i.p. administration [3]","bioavailability / pharmacokinetic properties, overall assessment [2]",protection against MPTP-induced alteration of 3-NT/tyrosine ratio ([4]; 15 mg/kg x3 daily i.p.),protection against MPTP-induced alteration of GSH/GSSG ([4]; 15 mg/kg x3 daily i.p.),protection against MPTP-induced striatal dopamine depletion ([5]; 15 mg/kg i.p.),effect on striatal MPP+ levels [9],further results
COC(=O)c1ccc(C2=C3C=CC(=N3)C(C=O)=c3ccc4[n]3[Mn+][n]3c(ccc32)C(C=O)=C2C=CC(=N2)C=4c2ccc(C(=O)OC)cc2)cc1 [AEOL11209],a major issue; also recorded: solubility issues,low but achievable,variable and relatively low,variable and relatively low,–,–,unfavorable pharmacokinetic or oral bioavailability; also recorded: poor bioavailability,–,–,–,–,–
CCCOC(=O)C1=C2C=CC(=N2)C(C(F)(F)F)=c2ccc3[n]2[Mn][n]2c1ccc2C(C(F)(F)F)=C1C=CC(=N1)C=3C(=O)OCCC [AEOL11216],–,high plasma concentrations,–,–,penetrated the BBB,more than 100 nM,–,significantly protected,significantly protected,did not significantly prevent,–,protection against MPTP-induced dopaminergic (TH+) neuronal loss in the substantia nigra pars compacta ([6]; 15 mg/kg i.p.): significantly protected
[Cl][Mn][Cl] [MnCl2],–,–,–,–,–,–,–,–,–,–,–,"accelerating rotorod test (latency to fall) versus other groups [7]: no statistically significant differences; open field test (total moving distance, moving velocity) versus other groups [8]: no statistically significant differences"
FC(F)(F)C1=C2C=CC(=N2)C(C(F)(F)F)=c2ccc3[n]2[Mn+][n]2c1ccc2C(C(F)(F)F)=C1C=CC(=N1)C=3C(F)(F)F [AEOL11256],a major issue,relatively low,undetectable,undetectable,–,–,–,–,–,–,none of the AEOL compounds tested altered the levels of MPP+,plasma concentration after p.o. administration ([2]; result in words): relatively low
COC(=O)c1ccc(C2=C3C=CC(=N3)C(C(F)(F)F)=c3ccc4[n]3[Mn+][n]3c2ccc3C(C(F)(F)F)=C2C=CC(=N2)C=4c2ccc(C(=O)OC)cc2)cc1 [AEOL1114],favorable solubility properties,–,–,–,penetrated the BBB,> 200 nM,"good pharmacokinetic properties, brain penetration, oral bioavailability",significantly protected,significantly protected,statistically significant protection,none of the AEOL compounds tested altered the levels of MPP+,"protection against MPTP-induced alteration of 3-NT/tyrosine ratio ([4]; 15 mg/kg x3 daily p.o.): significantly protected; protection against MPTP-induced alteration of GSH/GSSG ([4]; 15 mg/kg x3 daily p.o.): significantly protected; efficacy against MPTP-induced oxidative stress, overall assessment ([4]; summary in words): efficacy against MPTP-induced oxidative stress; protection against MPTP-induced striatal dopamine depletion ([5]; 15 mg/kg p.o.): statistically significant protection; plasma concentration after i.p. administration [2]: ~20000 nM; concentration in the brain for 24 hr after p.o. administration [3]: > 200 nM; protection against MPTP-induced dopaminergic (TH+) neuronal loss in the substantia nigra pars compacta ([6]; 15 mg/kg i.p.): prevents MPTP-induced loss of TH+ dopamine neurons; protection against MPTP-induced dopaminergic (TH+) neuronal loss in the substantia nigra pars compacta ([6]; 15 mg/kg p.o.): prevents MPTP-induced loss of TH+ dopamine neurons"
COC(=O)c1c2nc(c(C(F)(F)F)c3ccc([n-]3)c(C(=O)OC)c3nc(c(C(F)(F)F)c4ccc1[n-]4)C=C3)C=C2.[Cl-].[Mn+3] [AEOL11207],–,–,–,–,–,–,–,–,–,–,none of the AEOL compounds tested altered the levels of MPP+,–

# Now from value to compound, other results behind:
solubility [1],plasma concentration after i.p. administration ([2]; result in words),concentration in the brain after i.p. administration [3],concentration in the brain after p.o. administration [3],penetration of the BBB [3],"concentration in the brain, stable for 24 hr after i.p. administration [3]",Compound,"bioavailability / pharmacokinetic properties, overall assessment [2]",protection against MPTP-induced alteration of 3-NT/tyrosine ratio ([4]; 15 mg/kg x3 daily i.p.),protection against MPTP-induced alteration of GSH/GSSG ([4]; 15 mg/kg x3 daily i.p.),protection against MPTP-induced striatal dopamine depletion ([5]; 15 mg/kg i.p.),effect on striatal MPP+ levels [9],further results
good,relative high,good brain bioavailability,good brain bioavailability,penetrated the BBB,> 100 nM,COC(=O)C1=C2C=CC(=N2)C(C(=O)OC)=c2ccc3[n]2[Mn+][n]2c1ccc2C(C(=O)OC)=C1C=CC(=N1)C=3C(=O)OC [AEOL11203],–,significantly protected,significantly protected,statistically significant protection,none of the AEOL compounds tested altered the levels of MPP+,"efficacy in the MPTP mouse model, overall assessment ([5]; summary in words): promising efficacy; plasma concentration after p.o. administration [2]: ~5000 nM; concentration in the brain for 24 hr after p.o. administration [3]: ~50 nM"
–,moderate levels,not reliably detectable,–,–,–,CCCOC(=O)C1=C2C=CC(=N2)C(C(=O)OCCC)=c2ccc3[n]2[Mn][n]2c1ccc2C(C(=O)OCCC)=C1C=CC(=N1)C=3C(=O)OCCC [AEOL11215],poor bioavailability; also recorded: unfavorable pharmacokinetic or oral bioavailability,–,–,–,–,plasma concentration after p.o. administration ([2]; result in words): not reliably detected
